Residues, ends and D or L forms follow the SMILES beside them.

The test system of one experiment is T1, FERM domain of IDOL.
T1 construct: made in house; host or cells: E. coli BL21
In words: 1H 15N HSQC NMR binding to FERM domain (negative control). The source says: (§1) The lead candidates, cyclo-CTIFLL and cyclo-CFFLYT, were next analyzed for binding to the RING domain of IDOL by ^1H ^15N HSQC NMR. We also assessed the binding of each peptide to the FERM domain of IDOL as a negative control. […] It should be noted that the 3 residues affected by cyclo-CFFLYT (named RINGPep1) form part of the PPI interface in the crystal structure of the homodimerized RING domains of IDOL (Fig. 1c and ESI Fig. 6 ^†).[15] Furthermore, mutation of V431R coupled with a L433R mutation is known to result in a dimer deficient IDOL.[15]
(§2) ^15N-labeled RING and FERM domains were prepared for NMR experiments by buffer exchange using Amicon Ultra-4 Centrifugal Filter Units with 3 kDa molecular weight cut-off membranes. Buffer conditions for the NMR studies were 50 mM TRIS-d11 pH 7.5, 200 mM NaCl, 3 mM TCEP, 10% (v/v) D2O for the RING domain and 25 mM TRIS-d11, 25 mM NaPi, pH 7.5, 300 mM NaCl, 3 mM TCEP, 10% (v/v) D2O for the FERM domain. The protein concentrations were 80 μM and 70 μM, for the RING and FERM domain respectively. Two-dimensional NMR SOFAST-HMQC titration experiments were carried out on a Bruker 600 MHz spectrometer equipped with a cryoprobe. […]

The test system of the next experiment is T2, RING domain of IDOL.
T2 construct: IDOL RING domain (G356-I445) was expressed as TEV cleavable N-terminal HN6-Lysine-Tag; HN6-Lysine-Tag (TEV-cleavable) (N); made in house; host or cells: E. coli (pET vector)
The experiment is described as follows: 1H 15N HSQC NMR binding to RING domain.
From the text: as §1, §2

For experiment [1], the target named is T3, 6× His-tagged, full-length IDOL (Homo sapiens, UniProt Q8WY64).
T3 construct: Full length IDOL (1–445) was cloned with a TEV cleavable N-terminal 6xHis tag; made in house; host or cells: Spodoptera frugiperda Sf21 (baculovirus, pFastbac1)
T3 sequence (Q8WY64 1-445): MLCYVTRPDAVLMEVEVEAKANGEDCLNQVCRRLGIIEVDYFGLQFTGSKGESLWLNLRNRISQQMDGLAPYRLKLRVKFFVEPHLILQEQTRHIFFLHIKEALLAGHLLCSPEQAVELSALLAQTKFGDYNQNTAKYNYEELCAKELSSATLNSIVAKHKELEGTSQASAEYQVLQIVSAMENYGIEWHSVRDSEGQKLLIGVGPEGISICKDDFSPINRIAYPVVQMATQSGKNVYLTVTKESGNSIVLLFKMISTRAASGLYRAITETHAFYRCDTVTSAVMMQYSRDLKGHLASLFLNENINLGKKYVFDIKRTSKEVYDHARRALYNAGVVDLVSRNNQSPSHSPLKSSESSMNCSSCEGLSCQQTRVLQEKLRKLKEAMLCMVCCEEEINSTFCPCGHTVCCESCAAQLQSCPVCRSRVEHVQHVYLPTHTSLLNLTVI
In words: Surface plasmon resonance (SPR) affinity for IDOL. It is filed as binding. The settings on record: SPR, immobilized full-length His-IDOL; saturation at highest concentrations not observed; read-out: Kd. The source says:
We initially assessed the affinity of the 6 selected cyclic peptides for IDOL by surface plasmon resonance (SPR). Although saturation at the highest concentrations was not observed, due to hydrophobic effects, Kd values could be determined for five peptides (Table 1). […] The hit rate for our IDOL screen is in line with that for previous SICLOPPS screens.[21],[25] It should be noted that although cyclo-CTIFLL and cyclo-CTLILF contain the same amino acids, changing the order in which these are arranged results in activity loss.
All measurements were performed on a Biacore S200 (GE healthcare) using running buffer 10 mM HEPES, 300 mM NaCl, 1 mM TCEP, 0.05% Tween 20 and 4% DMSO at pH 8.0. In brief, 6× His-tagged, full-length IDOL was immobilized on a NTA-chip (Xantec), to a final level of ∼6000 RU. The chip was pre-loaded with Ni^2+ to facilitate efficient capture of His-tagged protein onto the chip. The activity of the immobilized protein was confirmed using a reference compound.
Supplementary Figure 2. […] Saturation of binding was not observed due to the hydrophobic nature of the peptides
(1 picture or pasted object on this page, not shown here)

Experiment [2] concerns IDOL homodimerization (434-IDOL fusion) in IDOL RTHS. In words: IDOL bacterial reverse two-hybrid system (RTHS) drop-spotting. It is filed as cell-based, E. coli. The conditions noted are these: SICLOPPS-encoded peptide, IPTG 25 μM plus arabinose. The source says: We used a previously reported genetically encoded high-throughput screening platform that combines a bacterial reverse two-hybrid system (RTHS)[21],[23]–[25] with a plasmid-encoded library of 3.2 million cyclic hexapeptides using split intein circular ligation of peptides and proteins (SICLOPPS).[26],[27] We began by constructing a bacterial RTHS for IDOL homodimerization. IDOL is expressed as an N-terminal fusion with the 434 bacteriophage repressor, with the 38 amino acid disordered region of the 434 repressor acting as linker. IDOL homodimerization is expected to bring together two 434 proteins to form a functional repressor that binds to the operator sites engineered onto the E. coli chromosome, and prevent the expression of 3 genes downstream that are required for growth and survival on selective media (Fig. 1a). We verified the formation of a functional repressor and suppression of growth on selective media upon IDOL homodimerization by drop-spotting (Fig. 1b), and by ONPG assay (ESI Fig. 1 ^†) as previously detailed.[21] A SICLOPPS CXXXXX library (where X = any canonical amino acid) was prepared as previously detailed[28] and transformed into the IDOL RTHS prior to plating on selective media. After incubation of the selection plates for 48 h, 480 surviving colonies were picked and individually assessed for arabinose-dependent survival on selective media by drop-spotting. […]

In the case of `CC(C)C[C@@H]1NC(=O)[C@H](Cc2ccccc2)NC(=O)[C@H](Cc2ccccc2)NC(=O)[C@H](CS)NC(=O)[C@H]([C@@H](C)O)NC(=O)[C@H](Cc2ccc(O)cc2)NC1=O` [RINGPep1, cyclo-CFFLYT] (HELM PEPTIDE1{C.F.F.L.Y.T}$PEPTIDE1,PEPTIDE1,1:R1-6:R2$$$V2.0), the “chemical shift changes, FERM domain of IDOL” value with FERM domain of IDOL is reported as “No changes”. Moreover, the “chemical shift changes, RING domain of IDOL” value in the experiment with RING domain of IDOL was “modest chemical shift changes for 3 amino acids”. Besides, the Kd in experiment [1] was 38.5 ± 34.8 µM. The “growth of IDOL RTHS on selective media” value in experiment [2] is reported as “restored”.

Source of the values: PMC6050537, “Inhibition of low-density lipoprotein receptor degradation with a cyclic peptide that disrupts the homodimerization of IDOL E3 ubiquitin ligase” (Chemical Science, 2018).
